# Literature values in patent US20250032638A1, “Novel Cancer Treatments with TLR7/8 Agonists” (Ascendis Pharma Oncology Division A/S, priority 2021, published 2025).
# Conditions: resiquimod administered orally; systemic toxicity at higher doses (Journal of Hepatology 47 (2007) 174-182)
compound,measurement,value
CCOCc1nc2c(N)nc3ccccc3c2n1CC(C)(C)O [resiquimod],systemic concentration that was well tolerated,about 4 ng/mL
